Results from US6387934B1, “2-Cyano-3,5-dihydroxyhex-2-enecarboxamide derivatives” (Aventis Pharma Deutschland GmbH, priority 1996, dated 2002).
Counter-ions that a name gives are not always drawn.

Legend:
[1] = test system: IL-1-induced chondrocytic chondrolysis; experiment: Modulation of the IL-1-induced chondrocytic chondrolysis (chondrolysis compensation); type: cell-based, bulls; conditions: stimulation factor = proteoglycan content with active compound / IL-1-treated control; interleukin-1 for 8 days, 35S-sulfate incorporation 24 hours; factor >1 = stimulation
Procedure: (§1) Cartilage cells can maintain their characteristic cartilage matrix metabolism ex vivo in suitable cell or tissue culture, i.e. the controlled synthesis and degradation of the matrix macromolecules, over a period of several weeks to months. These processes can be chemically influenced. […] In both assays, the stimulating action of the test substance is expressed by a stimulation factor which is calculated from the quotient of the specific proteoglycan content under the active compound condition divided by the proteoglycan content under the control condition. In Experiment A, the control condition is the untreated control group and in experimental procedure B this is the interleukin-1 (IL-1)-treated control group. A factor=1 can thus identify no action, a factor of >1 points to a stimulation and a factor of <1 to an inhibitory action.
B) Modulation of the IL-1-induced Chondrocytic Chondrolysis (Chondrolysis Compensation)
Cell preparation was carried out as described under A), if cartilage tissue explants are used these are added directly to the enriched culture medium described above after stamping out cartilage disks of 4 mm diameter and a depth which includes the entire cartilage layer. After adaptation for 5 days, interleukin-1 is added to the medium, 8 units/well for the cell culture, 20 units/well for the tissue culture, and, over the treatment period of 8 days, likewise added again every second day on changing the medium. At the end of the experiments, 1 μCi of Na2^35SO4/well is added and the mixture is incubated for 24 hours. After removing the supernatant, the remaining gels or explants are broken down in the microtiter plates by repeated deepfreezing and thawing and extracted with 8 M guanidine hydrochloride. After centrifugation, the supernatant is separated on a PD10 Sephadex column into free and incorporated sulfate and the radioactivity of the samples, which is a measure of the amount of proteoglycan newly formed, is determined in a β counter.

[2] = test system: chondrocytic proteoglycan metabolism; experiment: Modulation of the chondrocytic proteoglycan metabolism (PG stimulation); type: cell-based, bulls; conditions: stimulation factor = proteoglycan content with active compound / untreated control, 10 μm test substance, 8 days, chondrocytes in agarose, Alcian Blue extinction at 610 nm, factor >1 = stimulation; for fold induction at 10 µM: Chondrocyte, 192 h
Procedure: as §1
A) Modulation of the chondrocytic proteoglycan metabolism (PG stimulation)
Cartilage samples are taken under sterile conditions from fetlock joints of freshly slaughtered bulls, incubated with 1% strength pronase (Boehringer) solution in Ham's F12 medium (Serva) at 37° C. for 1 hour, and the enzyme solution is replaced by a 0.025% strength collagenase type A (Worthington) solution in medium and incubated overnight. After filtering through a 50 μm nylon filter, centrifugation, resuspension and vitality testing, a cell suspension of 4×10^6 cells/ml of medium, enriched with 20% fetal calf serum, is prepared and mixed at approximately 38° C. with 2% strength low-melting agarose (Seplaque) in the ratio 1:1 and 0.1 ml of this is pipetted into each well of a 24 well microtiter plate. After gelling, the samples are covered with a layer of 0.5 ml/well of medium, which is enriched with 5% serum, 25 μm/ml of ascorbic acid, and in groups of up to 6-8 wells with 10 μm of the test substance. The medium in a constant composition is renewed every second day for a treatment period of 8 days. At the end of the treatment, washing is carried out with medium, 1 ml of a buffered (pH 5.6) 1% strength Alcian Blue (Sigma) solution, enriched with 25% strength glutaraldehyde in the ratio 7:1, per well is added and the mixture is incubated for 48 hours. After washing and differentiating with 3% strength acetic acid, dehydration is carried out up to 70% strength ethanol content by means of the rising alcohol series, and then the bound dye is extracted at 4° C. for 24 hours using 8 M guanidine hydrochloride. The stoichiometric binding of the Alcian Blue to the chondroitin sulfate side chains of the proteoglycans allows a quantification of the enriched matrix via the determination of the extinction of the dye solution at 610 nm.

melting point [°C]	SMILES	Chondrolysis compensation [1]	fold induction at 10 µM [2]	PG stimulation [2]
156	C[C@@H](O)C/C(O)=C(\C#N)C(=O)Nc1ccc(C(F)(F)F)cc1 (as salt: salt) [Example 10a, N-(4-Trifluoromethylphenyl)-2-cyano-3,5-dihydroxyhex-2-enecarboxamide Lysinium Salt, R Isomer]			
157	C[C@H](O)C/C(O)=C(\C#N)C(=O)Nc1ccc(C(F)(F)F)cc1 (as salt: salt) [Example 10b, N-(4-Trifluormethylphenyl)-2-cyano-3,5-dihydroxyhex-2-enecarboxamide Lysinium Salt, S-isomer]			
135 to 138	CC(O)C/C(O)=C(\C#N)C(=O)Nc1ccc(C(F)(F)F)cc1 (centres unmarked) (as salt: salt) [Example 37, N-(4-Trifluoromethylphenyl)-2-cyano-3,5-dihydroxyhex-2-carboxamide Lysinium Salt]			
103	CC(C)(O)C/C(O)=C(\C#N)C(=O)Nc1ccccc1 [Example 1, N-(Phenyl)-2-cyano-3,5-dihydroxy-5-methylhex-2-enecarboxamide]	1.4		
155	CC(C)(O)C/C(O)=C(\C#N)C(=O)Nc1ccc(C(F)(F)F)cc1 [Example 2]	1.9	1.8	
	CC(C)(O)C/C(O)=C(\C#N)C(=O)NCc1ccccc1 [Example 3]	1.5		
81	CC(C)(O)C/C(O)=C(\C#N)C(=O)NCCc1ccccc1 [Example 4]	1.5		
101	CC(O)C/C(O)=C(\C#N)C(=O)Nc1ccccc1 (centres unmarked) [Example 5]	1.8		
	CC(O)C/C(O)=C(\C#N)C(=O)NCc1ccccc1 (centres unmarked) [Example 6]	1.9		
91	CC(O)C/C(O)=C(\C#N)C(=O)NCCc1ccccc1 (centres unmarked) [Example 7]	1.3		
152	CC(O)C/C(O)=C(\C#N)C(=O)Nc1ccc(Cl)cc1 (centres unmarked) [Example 8]	2.1		
	CC(O)C/C(O)=C(\C#N)C(=O)Nc1ccc(C(F)(F)F)cc1 (centres unmarked) [Example 9]	1.6	1.5	
	C[C@@H](O)C/C(O)=C(\C#N)C(=O)Nc1ccc(C(F)(F)F)cc1 [Example 10a, N-(4-Trifluoromethylphenyl)-2-cyano-3,5-dihydroxyhex-2-enecarboxamide Lysinium Salt, R Isomer]	1.1		
	C[C@H](O)C/C(O)=C(\C#N)C(=O)Nc1ccc(C(F)(F)F)cc1 [Example 10b, N-(4-Trifluormethylphenyl)-2-cyano-3,5-dihydroxyhex-2-enecarboxamide Lysinium Salt, S-isomer]	1.7		
170 to 171	Cc1ccc(C(O)C/C(O)=C(\C#N)C(=O)Nc2ccc(C(F)(F)F)cc2)cc1 (centres unmarked) [Example 11]			
178	N#C/C(C(=O)Nc1ccc(Cl)cc1)=C(/O)CC(O)c1ccccc1 (centres unmarked) [Example 12]			
165	Cc1cc(NC(=O)/C(C#N)=C(\O)CC(O)c2ccccc2)ccc1Cl (centres unmarked) [Example 13]	1.1		
180	Cc1ccc(C(O)C/C(O)=C(\C#N)C(=O)Nc2ccc(C(F)(F)F)cc2)cc1 (centres unmarked) [Example 14]			
	N#C/C(C(=O)Nc1ccc(C(F)(F)F)cc1)=C(/O)CC(O)c1ccc(OCc2ccccc2)cc1 (centres unmarked) [Example 15]	1.2		
180	N#C/C(C(=O)Nc1ccc(C(F)(F)F)cc1)=C(/O)CC(O)c1ccc(C#N)cc1 (centres unmarked) [Example 16]	1.1		
178	N#C/C(C(=O)Nc1ccc(C(F)(F)F)cc1)=C(/O)CC(O)c1ccc(C(F)(F)F)cc1 (centres unmarked) [Example 17]			

melting point [°C]	SMILES	Chondrolysis compensation [1]	fold induction at 10 µM [2]	PG stimulation [2]
154	COc1cc(C(O)C/C(O)=C(\C#N)C(=O)Nc2ccc(C(F)(F)F)cc2)cc(OC)c1OC (centres unmarked) [Example 18]	1.2	1.1	
	N#C/C(C(=O)Nc1ccc(C(F)(F)F)cc1)=C(/O)CC(O)c1ccc2c(c1)OCO2 (centres unmarked) [Example 19]	1.3	1.1	
203	N#C/C(C(=O)Nc1ccc(C(F)(F)F)cc1)=C(/O)CC(O)c1ccncc1 (centres unmarked) [Example 20]			
203	N#C/C(C(=O)Nc1ccc(C(F)(F)F)cc1)=C(/O)CC(O)c1cccnc1 (centres unmarked) [Example 21]	1.3	1.2	
	N#C/C(C(=O)Nc1ccc(C(F)(F)F)cc1)=C(/O)CC(O)c1ccco1 (centres unmarked) [Example 22]	1.9	1.1	
146	N#C/C(C(=O)Nc1ccc(C(F)(F)F)cc1)=C(/O)CC(O)c1ccoc1 (centres unmarked) [Example 23]	1.9		
	N#C/C(C(=O)Nc1ccc(C(F)(F)F)cc1)=C(/O)CC(O)c1cccs1 (centres unmarked) [Example 24]	1.9		
168 to 172	N#C/C(C(=O)Nc1ccc(C(F)(F)F)cc1)=C(/O)CC(O)/C=C/c1ccccc1 (centres unmarked) [Example 25]			
168	N#C/C(C(=O)Nc1ccc(C(F)(F)F)cc1)=C(/O)CC(O)C#Cc1ccccc1 (centres unmarked) [Example 26]	1.9		
141	C=CC(O)C/C(O)=C(\C#N)C(=O)Nc1ccc(C(F)(F)F)cc1 (centres unmarked) [Example 27]	1.6	1.7	
	C=C(C)C(O)C/C(O)=C(\C#N)C(=O)Nc1ccc(C(F)(F)F)cc1 (centres unmarked) [Example 28]		1.1	
	CC(C)=CC(O)C/C(O)=C(\C#N)C(=O)Nc1ccc(C(F)(F)F)cc1 (centres unmarked) [Example 29]	1.7	1.1	
114 to 116	CC(C)=CCC/C(C)=C/C(O)C/C(O)=C(\C#N)C(=O)Nc1ccc(C(F)(F)F)cc1 (centres unmarked) [Example 30]	1.3		
	CCCCC(C)(O)C/C(O)=C(\C#N)C(=O)Nc1ccc(C(F)(F)F)cc1 (centres unmarked) [Example 31]	1.6		
	CC(O)(C/C(O)=C(\C#N)C(=O)Nc1ccc(C(F)(F)F)cc1)C1CC1 (centres unmarked) [Example 32]	1.8	1.1	
	N#C/C(C(=O)Nc1ccc(C(F)(F)F)cc1)=C(/O)CC(O)C1CC1 (centres unmarked) [Example 33]	1.9		
	N#C/C(C(=O)Nc1ccc(C(F)(F)F)cc1)=C(/O)CC(=O)O [Example 36]	1.8		
	CC(O)C/C(O)=C(\C#N)C(=O)Nc1ccc(C(F)(F)F)cc1 (centres unmarked) [Example 37, N-(4-Trifluoromethylphenyl)-2-cyano-3,5-dihydroxyhex-2-carboxamide Lysinium Salt]	1.9		1.1
145 to 148	CC(C)(O)C/C(O)=C(\C#N)C(=O)Nc1ccc(C(F)(F)F)cc1 [Example 38]	1.8		
133 to 135	C=CC(O)C/C(O)=C(\C#N)C(=O)Nc1ccc(C(F)(F)F)cc1 (centres unmarked) [Example 39]	1.6		1.7
